According to patent publication US11419335B2, “N-arylated analogues and uses thereof” (University of Florida Research Foundation, Incorporated, priority 2016, dated 2022):
Read-outs that look alike come from different tables or passages of the source. Marks after values point to notes of the source that are not given here.

What was measured:
[1] = system: Acinetobacter baumannii (ATCC 1794); assay: MIC broth microdilution, A. baumannii 1794; type: cell-based; details: for MIC A. baumannii 1794: in µM
In short: (§1)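 Values are lowest no-growth concentrations after 16–18 h at 37° C in Luria Broth, inoculum ~10^5 log-phase cells, eleven two-fold dilutions spanning 0.10–100 μM, OD600 used to confirm. DMSO, top 1% v/v, served as vehicle and negative control.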

[2] = system: methicillin-resistant Staphylococcus epidermidis (MRSE strain ATCC 35984); assay: MIC broth microdilution, MRSE 35984; type: cell-based
In short: as §1

MRSA BAA-1707 = assay: MIC broth microdilution, MRSA BAA-1707; type: cell-based, Staphylococcus aureus; details: for MIC MRSA 1707: Table 4
In short: (§2)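 Serial two-fold dilutions (0.10–100 μM) in LB, CLSI broth microdilution format. Inoculum: ~10^5 log-phase cells per well.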

[3] = system: human red blood cells (hRBC); assay: Hemolysis of red blood cells; type: cell-based; details: for HC50: Table 1A
In short: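 hRBCs (2% suspension) exposed to compounds at 0.2–200 μM (ten-point dose-response) for 1 h at 37 °C; after centrifugation, haemoglobin release read as supernatant OD at 405 nm. DMSO set as 0% and Triton X as 100% haemolysis; HC50 from dose-response curves, three independent experiments.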

[4] = system: Pseudomonas aeruginosa (PAO1); assay: MIC broth microdilution, PAO1; type: cell-based
In short: as §1

[5] = system: methicillin-resistant Staphylococcus aureus MRSA-2 (clinical isolate); assay: MIC broth microdilution, MRSA-2; type: cell-based
In short: as §1

[6] = system: vancomycin-resistant Enterococcus faecium (VRE strain ATCC 700221); assay: MIC broth microdilution, VRE 700221; type: cell-based
In short: as §1

[7] = system: SA-156 (clinical isolate); assay: MIC broth microdilution, SA-156; type: cell-based, Staphylococcus aureus
Method: (§3) The minimum inhibitory concentration (MIC) for each tested compound was determined by the broth microdilution method as recommended by the Clinical and Laboratory Standards Institute (CLSI). In a 96-well plate, eleven two-fold serial dilutions of each compound were made in a final volume of 100 μL Luria Broth. Each well was inoculated with ˜10^5 bacterial cells at the initial time of incubation, prepared from a fresh log phase culture (OD600 of 0.5 to 1.0 depending on bacterial strain). […] (MIC values were supported by spectrophotometric readings at OD600). DMSO served as our vehicle and negative control in each microdilution MIC assay. DMSO was serially diluted with a top concentration of 1% v/v.
(§4) Each well was inoculated with ˜10^5 bacterial cells at the initial time of incubation, prepared from a fresh log phase culture (OD600 of 0.5 to 1.0 depending on bacterial strain). […] The concentration range tested for each compound during this study was 0.10 to 100 μM. DMSO served as our vehicle and negative control in each microdilution MIC assay. DMSO was serially diluted with a top concentration of 1% v/v. All MIC values were obtained from a minimum of three independent experiments.

[8] = system: SA-129 (clinical isolate); assay: MIC broth microdilution, SA-129; type: cell-based, Staphylococcus aureus
Method: as §3, §4

[9] = system: SA-138 (clinical isolate); assay: MIC broth microdilution, SA-138; type: cell-based, Staphylococcus aureus
Method: as §3, §4

[10] = system: methicillin-sensitive Staphylococcus aureus ATCC 29213; assay: MIC broth microdilution, S. aureus 29213; type: cell-based
In short: as §2

[11] = system: MRSA-1 (clinical isolate); assay: MIC broth microdilution, MRSA-1; type: cell-based, Staphylococcus aureus
Method: as §3, §4

[12] = system: SA-147 (clinical isolate); assay: MIC broth microdilution, SA-147; type: cell-based, Staphylococcus aureus
Method: as §3, §4

MRSA BAA-44 = assay: MIC broth microdilution, MRSA BAA-44; type: cell-based, Staphylococcus aureus
Method: as §3, §4

[13] = Table 1B, read-out: MIC MRSA BAA-1707
[14] = Table 2A, read-out: MRSA BAA-1707 MIC
[15] = Table 3, read-out: MIC MRSA BAA-1707
[16] = Table 4, concentration required to lyse 50% of red blood cells

CCCCCCCCCCCCCCCC[N+](C)(C)Cc1ccccc1.[Cl-] [BAC-16, reference compound]
MIC A. bau. 1794 ([1]; Table 4): 6.25 µM | MIC MRSE 35984 ([2]; Table 4): 1.56 µM | MIC MRSA 1707 (MRSA BAA-1707): 1.56 µM | RBC HC50 [3]: 21.8 µM | MIC PAO1 ([4]; Table 4): >100 µM | MIC MRSA-2 ([5]; Table 4): 1.56 µM | MIC VRE 700221 ([6]; Table 4): 3.13 µM

CCCCCCCCCCCCCCCCn1cc[n+](C)c1C.[I-] [Compound 8]
MIC ([7]; Table 1B): 1.56 µM | MIC ([7]; Table 3): 1.56 µM | MIC A. bau. 1794 [1]: 12.5 µM | MIC A. baumannii 1794 [1]: 12.5 | MIC MRSE 35984 [2]: 1.17a micromolar | MIC S. epidermidis MRSE 35984 [2]: 1.17^a | MRSE 35984 MIC [2]: 1.17^a μM | MIC ([8]; Table 1B): 1.56 µM | MIC ([8]; Table 3): 1.56 µM | MIC (MRSA BAA-1707; [13]): 0.39 µM | MIC (MRSA BAA-1707; [14]): 0.39 µM | MIC (MRSA BAA-1707; [15]): 0.39 µM | MIC MRSA 1707 (MRSA BAA-1707): 0.39 µM | HC50 [3]: 13 µM | RBC HC50 [3, 16]: 13.0 µM | MIC SA-138 ([9]; Table 1B): 2.35^a μM | MIC SA-138 ([9]; Table 3): 2.35^a μM | MIC ([10]; Table 1B): 1.56 µM | MIC ([10]; Table 3): 1.56 µM | MIC ([11]; Table 1B): 1.56 µM | MIC ([11]; Table 3): 1.56 µM | MRSA-2 MIC [5]: 1.17^a μM | MIC SA-147 ([12]; Table 1B): 1.17^a μM | MIC SA-147 ([12]; Table 3): 1.17^a μM | MIC E. faecium VRE 700221 [6]: 2.35^a | MIC VRE 700221 [6]: 2.35a micromolar | VRE MIC [6]: 2.35^a μM | MIC (MRSA BAA-44; Table 1B): 1.56 µM | MIC (MRSA BAA-44; Table 3): 1.56 µM

CCCCCCCCCCCCCCCCn1cc[n+](CCO)c1C.[Br-] [Compound 11]
MIC ([7]; Table 1B): 1.56 µM | MIC ([7]; Table 3): 1.56 µM | MIC A. baumannii 1794 ([1]; Table 1A): 6.25 | MIC A. bau. 1794 ([1]; Table 4): 6.25 µM | MIC S. epidermidis MRSE 35984 ([2]; Table 1A): 0.59^a | MRSE 35984 MIC ([2]; Table 2A): 0.59^a μM | MIC MRSE 35984 ([2]; Table 4): 0.59a micromolar | MIC ([8]; Table 1B): 1.56 µM | MIC ([8]; Table 3): 1.56 µM | MIC (MRSA BAA-1707; [13]): 0.39 µM | MIC (MRSA BAA-1707; [14]): 0.39 µM | MIC (MRSA BAA-1707; [15]): 0.39 µM | MIC MRSA 1707 (MRSA BAA-1707): 0.39 µM | HC50 [3]: 6.8 µM | RBC HC50 [3, 16]: 6.8 µM | MIC ([9]; Table 1B): 1.56 µM | MIC ([9]; Table 3): 1.56 µM | MIC S. aureus 29213 ([10]; Table 1B): 1.17^a μM | MIC S. aureus 29213 ([10]; Table 3): 1.17^a μM | MIC PAO1 ([4]; Table 1A): > 100 µM | MIC PAO1 ([4]; Table 4): >100 µM | MIC MRSA-1 ([11]; Table 1B): 1.17^a μM | MIC MRSA-1 ([11]; Table 3): 1.17^a μM | MIC MRSA-2 ([5]; Table 1A): 1.56 µM | MIC ([5]; Table 1B, read-out: MIC MRSA-2): 0.78 µM | MRSA-2 MIC ([5]; Table 2A): 1.56 µM | MIC MRSA-2 ([5]; Table 3): 1.17^a μM | MIC MRSA-2 ([5]; Table 4): 1.17a micromolar | MIC SA-147 ([12]; Table 1B): 1.17^a μM | MIC SA-147 ([12]; Table 3): 1.17^a μM | MIC E. faecium VRE 700221 ([6]; Table 1A): 1.56 µM | VRE MIC ([6]; Table 2A): 1.56 µM | MIC VRE 700221 ([6]; Table 4): 1.56 µM | MIC (MRSA BAA-44; Table 1B): 1.56 µM | MIC (MRSA BAA-44; Table 3): 1.56 µM
